Results from patent US4254109A, “1H-Benz[de]isoquinoline-2(3H)-acetic acid derivatives” (Ayerst, McKenna & Harrison Inc., priority 1979, dated 1981).

Legend:
aldose reductase [1] = details: cited from earlier work
insulin secretion = details: cited from earlier work
glucagon = details: cited from earlier work
aldose reductase [2] = molecular target: T1, aldose reductase (Bos taurus, UniProt P16116); test: in vitro aldose reductase inhibition (modified Hayman and Kinoshita procedure; enzyme from bovine lens); type: biochemical; details: read-out: Percent Inhibition at Different Molar Concentrations (in vitro); for inhibition at 10 µM: 10^-5 molar; for inhibition at 1 µM: 10^-6 molar; for inhibition at 0.1 µM: 10^-7 molar
T1 construct: preparation of the enzyme from bovine lens; from tissue; host or cells: bovine lens
Protocol: In the present case the procedure of Hayman and Kinoshita is modified in that the final chromatography step is omitted in the preparation of the enzyme from bovine lens.
The following results were obtained when the compounds of this invention were evaluated in the above in vitro test (the results for 1,3-dioxo-1H-benz[de]isoquinoline-2(3H)-acetic acid, see U.S. Pat. No. 3,821,383 cited hereinbefore, also is included for comparative purposes): […]

inhibition at 10 µM (aldose reductase [2]) [%] | inhibition at 1 µM (aldose reductase [2]) [%] | inhibition at 0.1 µM (aldose reductase [2]) [%] | SMILES | inhibitor of aldose reductase (aldose reductase [1]) | insulin secretion (insulin secretion) | secretion of excessive amounts of glucagon (glucagon)
74 | 32 | 5 | O=C(O)CN1C(=O)c2cccc3cccc(c23)C1=O [1,3-Dioxo-1H-benz[de]isoquinoline-2(3H)-acetic acid, reference compound] | effective inhibitor of aldose reductase | stimulates insulin secretion | prevents or decreases the secretion of excessive amounts of glucagon
85 | 65 | 22 | O=C(O)CN1C(=O)c2cccc3c(C(=O)c4ccccc4)ccc(c23)C1=O [Example 1, 6-Benzoyl-1,3-dioxo-1H-benz[de]isoquinoline-2(3H)-acetic acid] | – | – | –
86 | 42 | 9 | O=C(O)CN1C(=O)c2cccc3c(Cl)ccc(c23)C1=O [Example 2, 6-Chloro-1,3-dioxo-1H-benz[de]isoquinoline-2(3H)-acetic acid] | – | – | –
92 | 71 | 22 | O=C(O)CN1C(=O)c2cccc3c(Sc4ccccc4)ccc(c23)C1=O [Example 3, 1,3-Dioxo-6-(phenylthio)-1H-benz[de]isoquinoline-2(3H)-acetic acid] | – | – | –
91 | 61 | 17 | O=C(O)CN1C(=O)c2cccc3c(Sc4ccccc4C(=O)O)ccc(c23)C1=O [Example 4, 1,3-Dioxo-6-[(2-carboxyphenyl)thio]-1H-benz[de]isoquinoline-2(3H)-acetic acid] | – | – | –
60 | 33 | 26 | CCCCCCCCCCSc1ccc2c3c(cccc13)C(=O)N(CC(=O)O)C2=O [Example 5, 1,3-Dioxo-6-(decylthio)-1H-benz[de]isoquinoline-2(3H)-acetic acid] | – | – | –
